Source: article PMC11317875 (Chemical Science, 2024)

Tested on: Mycobacterium tuberculosis
Experiment: F-Tre uptake at a single time point, HPAEC-PAD of cytosolic extracts
Format: cell-based
Conditions: 0-200 μM probe, ion chromatography of cytosolic extracts

Q: For OC[C@H]1O[C@H](O[C@H]2O[C@H](CO)[C@@H](O)[C@H](F)[C@H]2O)[C@H](O)[C@@H](O)[C@@H]1O [3F-Tre, 3-deoxy-3-fluoro-trehalose], which “uptake / accumulation in Mtb cells” value is on record?
A: The value was “significant dose-dependent increase in the accumulation”.

Same assay, conditions: Mtb + 25 µM F-Tre, HPAEC trace

Q: Which “Peak area of F-Tre peak” value does the source give for OC[C@H]1O[C@H](O[C@H]2O[C@H](CO)[C@@H](O)[C@H](F)[C@H]2O)[C@H](O)[C@@H](O)[C@@H]1O [3F-Tre, 3-deoxy-3-fluoro-trehalose] here?
A: Its value is 1.869 nC*min.

Same assay, conditions: Mtb + 50 µM F-Tre, HPAEC trace

Q: For OC[C@H]1O[C@H](O[C@H]2O[C@H](CO)[C@@H](O)[C@H](F)[C@H]2O)[C@H](O)[C@@H](O)[C@@H]1O [3F-Tre, 3-deoxy-3-fluoro-trehalose], which “Peak area of F-Tre peak” value is on record?
A: Its value is 3.093 nC*min.

Same assay, conditions: Mtb + 100 µM F-Tre, HPAEC trace

Q: OC[C@H]1O[C@H](O[C@H]2O[C@H](CO)[C@@H](O)[C@H](F)[C@H]2O)[C@H](O)[C@@H](O)[C@@H]1O [3F-Tre, 3-deoxy-3-fluoro-trehalose] was tested. Which “Peak area of F-Tre peak” value did it give?
A: The value was 6.779 nC*min.

Same assay, conditions: Mtb + 200 µM F-Tre, HPAEC trace

Q: How did the “Peak area of F-Tre peak” value turn out when OC[C@H]1O[C@H](O[C@H]2O[C@H](CO)[C@@H](O)[C@H](F)[C@H]2O)[C@H](O)[C@@H](O)[C@@H]1O [3F-Tre, 3-deoxy-3-fluoro-trehalose] was run?
A: The value was 12.530 nC*min.

Tested on: Mycobacterium tuberculosis
Experiment: Time dependent F-Tre uptake, HPAEC-PAD of cytosolic extracts
Format: cell-based
Conditions: 100 μM probe, cytosolic extracts
Procedure: lyophilised, resuspended in 1 mL 18 MΩ H2O and filtered through a 10-kDa molecular weight cut-off centrifuge filter (Amicon) and the filtrate analysed. HPAEC-PAD was performed on a Dionex ICS5000+ system with a CarboPac PA-20 analytical column (3 mm x 150 mm) and PA-20 guard column (3 mm x 30 mm) kept at 20 °C. Pulsed amperometry with standard quadrupole waveform was used for detection. The system was equipped with an autosampler that was set up to inject 10 μL sample volumes. Multistep gradient […]
Chromeleon 7 software (Dionex) was used for data processing.
Table S11: High performance anion exchange chromatography KOH elution gradient for F-Tre analysis Time (min) KOH conc. (mM) Flow rate (mL/min)
To quantify uptake, the peak area of 2F-Tre, 3F-Tre and 6F-Tre standards at varying concentrations were measured (Chromeleon 7 software). The peak area was plotted against concentration and simple linear regression was plotted. To determine the concentration of F-Tre analogues in cytosolic samples the area of the peaks of interest was measured (Chromeleon 7 software) and the concentration determined from the calibration […]
Time dependent F-Tre uptake
M. tuberculosis was grown to an OD600 of 0.8, then 2F-Tre, 3F-Tre, 4F-Tre or 6F-Tre were added to a final concentration of 100 µM. Controls with the equivalent volume of water or equivalent concentration of trehalose were also prepared. 5 mL aliquots were taken at T=0, 0.5, 1, 1.5, 2, 3, 4, 6, 8 h and the cells were harvested by centrifugation (2,916 x g, 5 min, 22 ° C) and washed (5 mL PBST) three times. The pellets were then resuspended in 1 mL H2O and lysed by mechanical disruption using 0.1 mm zirconia/silica beads (BioSpec Products) on a FastPrep (MP Biomedicals) ribolyser (4 x 45 s cycles with 90 s on ice in between).
Samples were then centrifuged (16,200 x g, 10 min, 22 °C) and the supernatant collected, lyophilised, resuspended in 1 mL 18 MΩ H2O and filtered through a 10-kDa molecular weight cut-off centrifuge filter (Amicon). The filtrate was analysed by HPAEC-PAD and quantified as described above.

Q: With OC[C@H]1O[C@H](O[C@H]2O[C@H](CO)[C@@H](O)[C@H](F)[C@H]2O)[C@H](O)[C@@H](O)[C@@H]1O [3F-Tre, 3-deoxy-3-fluoro-trehalose] as the compound, how does the accumulation rate read?
A: Its accumulation rate is 0.94 µM/h.

Same assay, conditions: Time 0 h, 100 µM probe

Q: For OC[C@H]1O[C@H](O[C@H]2O[C@H](CO)[C@@H](O)[C@H](F)[C@H]2O)[C@H](O)[C@@H](O)[C@@H]1O [3F-Tre, 3-deoxy-3-fluoro-trehalose], which Mtb cytosolic concentration is on record?
A: Its Mtb cytosolic concentration is 0 ± 0 µM.

Same assay, conditions: Time 0.5 h, 100 µM probe

Q: With OC[C@H]1O[C@H](O[C@H]2O[C@H](CO)[C@@H](O)[C@H](F)[C@H]2O)[C@H](O)[C@@H](O)[C@@H]1O [3F-Tre, 3-deoxy-3-fluoro-trehalose] as the compound, how does the Mtb cytosolic concentration read?
A: The Mtb cytosolic concentration was 250 ± 102 µM.

Same assay, conditions: Time 1 h, 100 µM probe

Q: How did the Mtb cytosolic concentration turn out when OC[C@H]1O[C@H](O[C@H]2O[C@H](CO)[C@@H](O)[C@H](F)[C@H]2O)[C@H](O)[C@@H](O)[C@@H]1O [3F-Tre, 3-deoxy-3-fluoro-trehalose] was run?
A: Its Mtb cytosolic concentration is 423 ± 256 µM.

Same assay, conditions: Time 1.5 h, 100 µM probe

Q: With OC[C@H]1O[C@H](O[C@H]2O[C@H](CO)[C@@H](O)[C@H](F)[C@H]2O)[C@H](O)[C@@H](O)[C@@H]1O [3F-Tre, 3-deoxy-3-fluoro-trehalose] as the compound, how does the Mtb cytosolic concentration read?
A: Its Mtb cytosolic concentration is 1030 ± 335 µM.

Same assay, conditions: Time 2 h, 100 µM probe

Q: How did the Mtb cytosolic concentration turn out when OC[C@H]1O[C@H](O[C@H]2O[C@H](CO)[C@@H](O)[C@H](F)[C@H]2O)[C@H](O)[C@@H](O)[C@@H]1O [3F-Tre, 3-deoxy-3-fluoro-trehalose] was run?
A: The Mtb cytosolic concentration was 1628 ± 25 µM.

Same assay, conditions: Time 4 h, 100 µM probe

Q: With OC[C@H]1O[C@H](O[C@H]2O[C@H](CO)[C@@H](O)[C@H](F)[C@H]2O)[C@H](O)[C@@H](O)[C@@H]1O [3F-Tre, 3-deoxy-3-fluoro-trehalose] as the compound, how does the Mtb cytosolic concentration read?
A: The Mtb cytosolic concentration was 3016 ± 102 µM.

Same assay, conditions: Time 6 h, 100 µM probe

Q: How did the Mtb cytosolic concentration turn out when OC[C@H]1O[C@H](O[C@H]2O[C@H](CO)[C@@H](O)[C@H](F)[C@H]2O)[C@H](O)[C@@H](O)[C@@H]1O [3F-Tre, 3-deoxy-3-fluoro-trehalose] was run?
A: Its Mtb cytosolic concentration is 5872 ± 297 µM.

Same assay, conditions: Time 8 h, 100 µM probe

Q: How did the Mtb cytosolic concentration turn out when OC[C@H]1O[C@H](O[C@H]2O[C@H](CO)[C@@H](O)[C@H](F)[C@H]2O)[C@H](O)[C@@H](O)[C@@H]1O [3F-Tre, 3-deoxy-3-fluoro-trehalose] was run?
A: Its Mtb cytosolic concentration is 7892 ± 72 µM.

Same assay, conditions: at 8 hours

Q: With OC[C@H]1O[C@H](O[C@H]2O[C@H](CO)[C@@H](O)[C@H](F)[C@H]2O)[C@H](O)[C@@H](O)[C@@H]1O [3F-Tre, 3-deoxy-3-fluoro-trehalose] as the compound, how does the “increased accumulation compared to 2F- and 6F-Tre” value read?
A: Its value is ~20%.

Same assay, conditions: up to the 8 hour timepoint

Q: OC[C@H]1O[C@H](O[C@H]2O[C@H](CO)[C@@H](O)[C@H](F)[C@H]2O)[C@H](O)[C@@H](O)[C@@H]1O [3F-Tre, 3-deoxy-3-fluoro-trehalose] was tested. Which saturation of uptake did it give?
A: The saturation of uptake was “no saturation of uptake”.

Tested on: Wild-type Mycobacterium bovis BCG
Experiment: not given
Format: cell-based
Conditions: 100 μM probe

Q: With OC[C@H]1O[C@H](O[C@H]2O[C@H](CO)[C@@H](O)[C@H](F)[C@H]2O)[C@H](O)[C@@H](O)[C@@H]1O [3F-Tre, 3-deoxy-3-fluoro-trehalose] as the compound, how does the “accumulation in cytosolic extracts” value read?
A: The value was “accumulate”.

Tested on: Mtb
Experiment: not given
Format: cell-based, Mycobacterium tuberculosis
Conditions: 100 μM probe

Q: For OC[C@H]1O[C@H](O[C@H]2O[C@H](CO)[C@@H](O)[C@H](F)[C@H]2O)[C@H](O)[C@@H](O)[C@@H]1O [3F-Tre, 3-deoxy-3-fluoro-trehalose], which “new spots in the lipid extracts (TLC)” value is on record?
A: The value was “new spots”.

Same assay, conditions: 100 μM probe; Fig. 8 shows Mtb and M. bovis BCG

Q: OC[C@H]1O[C@H](O[C@H]2O[C@H](CO)[C@@H](O)[C@H](F)[C@H]2O)[C@H](O)[C@@H](O)[C@@H]1O [3F-Tre, 3-deoxy-3-fluoro-trehalose] was tested. Which “additional band in the TDM region (TLC)” value did it give?
A: The value was “one additional lower polarity TDM band”.

Q: What about the “additional lower polarity bands than TMM (TLC)” value of the same compound?
A: Its value is “Two additional lower polarity bands than TMM”.

Tested on: M. bovis BCG
Experiment: not given
Format: cell-based, Mycobacterium bovis BCG
Conditions: 100 μM probe

Q: For OC[C@H]1O[C@H](O[C@H]2O[C@H](CO)[C@@H](O)[C@H](F)[C@H]2O)[C@H](O)[C@@H](O)[C@@H]1O [3F-Tre, 3-deoxy-3-fluoro-trehalose], which “new spots in the lipid extracts (TLC)” value is on record?
A: The value was “new spots”.

Target: LpqY (Mycolicibacterium thermoresistibile, UniProt G7CES0)
Experiment: Microscale thermophoresis (MST) binding to LpqY
Conditions: not given

LpqY, sequence (G7CES0 29-471): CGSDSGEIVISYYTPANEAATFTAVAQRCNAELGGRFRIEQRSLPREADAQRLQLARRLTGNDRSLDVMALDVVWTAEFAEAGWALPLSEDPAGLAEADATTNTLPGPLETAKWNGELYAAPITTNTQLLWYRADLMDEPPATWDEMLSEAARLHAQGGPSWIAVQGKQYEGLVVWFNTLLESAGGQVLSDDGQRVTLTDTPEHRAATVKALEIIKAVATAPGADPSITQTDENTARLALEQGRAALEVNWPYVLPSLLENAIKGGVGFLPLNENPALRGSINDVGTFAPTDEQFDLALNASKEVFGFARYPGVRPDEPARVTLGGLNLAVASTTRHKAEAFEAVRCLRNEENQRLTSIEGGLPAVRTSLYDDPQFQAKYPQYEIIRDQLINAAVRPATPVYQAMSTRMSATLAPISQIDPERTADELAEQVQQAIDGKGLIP

Q: OC[C@H]1O[C@H](O[C@H]2O[C@H](CO)[C@@H](O)[C@H](F)[C@H]2O)[C@H](O)[C@@H](O)[C@@H]1O [3F-Tre, 3-deoxy-3-fluoro-trehalose] was tested. Which Kd did it give?
A: Its Kd is 111 ± 7.1 µM.
